In ChEMBL document CHEMBL1201862, “PubChem BioAssay data set” (2004):
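Cells were grown in 96-well plates and exposed to each compound for 48 hours at five concentrations; endpoints were interpolated linearly between bracketing concentrations, or set to the highest concentration if not reached. At the GI50, growth is halved.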 Calls of active or inactive are those of the source. No stated cut-off is given here; in the data, active = GI50 up to about 1.1 µM and inactive = higher.

Columns and labels:
Experiment in all cases: DTP human tumour cell line panel, 48 h
[1] = tested on: HL-60
[2] = tested on: A549
[3] = tested on: OVCAR-5
[4] = tested on: SF-268
[5] = tested on: OVCAR-4
[6] = tested on: SR
[7] = tested on: U-251
[8] = tested on: 786-0
[9] = tested on: PC-3
[10] = tested on: SK-MEL-2
[11] = tested on: LOX IMVI
[12] = tested on: HT-29
[13] = tested on: UO-31
[14] = tested on: HOP-92
[15] = tested on: SNB-75
[16] = tested on: UACC-62
[17] = tested on: MDA-N
[18] = tested on: MDA-MB-231
[19] = tested on: CAKI-1
[20] = tested on: UACC-257
[21] = tested on: IGROV-1
[22] = tested on: SNB-19
[23] = tested on: SK-OV-3
[24] = tested on: NCI-H23
[25] = tested on: M14
[26] = tested on: MCF7
[27] = tested on: COLO 205
[28] = tested on: MOLT-4
[29] = tested on: HCC 2998
[30] = tested on: HCT-15
[31] = tested on: HOP-62
[32] = tested on: RPMI-8226
[33] = tested on: SF-295
[34] = tested on: EKVX
[35] = tested on: CCRF-CEM
[36] = tested on: NCI/ADR-RES
[37] = tested on: ACHN
[38] = tested on: NCI-H460
[39] = tested on: T47D
[40] = tested on: TK-10
[41] = tested on: SF-539
[42] = tested on: HCT-116
[43] = tested on: Hs-578T
[44] = tested on: SW-620
[45] = tested on: OVCAR-8
[46] = tested on: SK-MEL-5
[47] = tested on: NCI-H226
[48] = tested on: OVCAR-3
[49] = tested on: BT-549
[50] = tested on: DU-145
[51] = tested on: MDA-MB-435
[52] = tested on: K562
[53] = tested on: Malme-3M
[54] = tested on: KM12
[55] = tested on: SK-MEL-28
[56] = tested on: A498
[57] = tested on: RXF 393
[58] = tested on: SN12C

For `CNC(=O)CC1NC(=O)c2csc(n2)-c2ccc(-c3nc(C4=NC(C(=O)N5CCCC5C(N)=O)CO4)cs3)nc2-c2csc(n2)-c2csc(n2)C(C(C)C)NC(=O)CNC(=O)c2csc(n2)C(C(C)C)NC(=O)c2nc1sc2C` (stereo not drawn), which GI50 [1] is on record?
Its GI50 is > 25000 nM (inactive).

What about the GI50 [2] of the same compound?
Its GI50 is 7.24 nM (active).

What about the GI50 [3] of the same compound?
Its GI50 is 27.1 nM (active).

And the GI50 [4]?
Its GI50 is 62.5 nM (active).

What about the GI50 [5] of the same compound?
Its GI50 is 4330 nM (inactive).

What about the GI50 [6] of the same compound?
The GI50 was > 25000 nM (inactive).

What about the GI50 [7] of the same compound?
Its GI50 is 2.5 nM (active).

What about the GI50 [8] of the same compound?
The GI50 was 21.4 nM (active).

And the GI50 [9]?
The GI50 was 4.89 nM (active).

And the GI50 [10]?
The GI50 was 15.5 nM (active).

What about the GI50 [11] of the same compound?
The GI50 was 1.91 nM (active).

What about the GI50 [12] of the same compound?
Its GI50 is > 25000 nM (inactive).

And the GI50 [13]?
Its GI50 is 2180 nM (inactive).

And the GI50 [14]?
Its GI50 is 968 nM (active).

What about the GI50 [15] of the same compound?
Its GI50 is 2.03 nM (active).

And the GI50 [16]?
Its GI50 is 4.38 nM (active).

What about the GI50 [17] of the same compound?
Its GI50 is > 25000 nM (inactive).

What about the GI50 [18] of the same compound?
Its GI50 is 15.3 nM (active).

What about the GI50 [19] of the same compound?
The GI50 was 436 nM (active).

And the GI50 [20]?
The GI50 was 20 nM (active).

What about the GI50 [21] of the same compound?
The GI50 was 1.75 nM (active).

And the GI50 [22]?
The GI50 was 43 nM (active).

And the GI50 [23]?
Its GI50 is 1.3 nM (active).

And the GI50 [24]?
Its GI50 is 2.39 nM (active).

What about the GI50 [25] of the same compound?
Its GI50 is 12.3 nM (active).

What about the GI50 [26] of the same compound?
Its GI50 is > 25000 nM (inactive).

And the GI50 [27]?
The GI50 was 1.26 nM (active).

What about the GI50 [28] of the same compound?
The GI50 was 7.28 nM (active).

What about the GI50 [29] of the same compound?
Its GI50 is 7.62 nM (active).

What about the GI50 [30] of the same compound?
The GI50 was 479 nM.

And the GI50 [31]?
Its GI50 is 8.26 nM (active).

What about the GI50 [32] of the same compound?
The GI50 was > 25000 nM (inactive).

And the GI50 [33]?
The GI50 was 21 nM (active).

What about the GI50 [34] of the same compound?
Its GI50 is 2380 nM (inactive).

And the GI50 [35]?
Its GI50 is 5.27 nM (active).

And the GI50 [36]?
The GI50 was 6050 nM (inactive).

What about the GI50 [37] of the same compound?
The GI50 was 4370 nM (inactive).

And the GI50 [38]?
Its GI50 is 1.94 nM (active).

And the GI50 [39]?
Its GI50 is 3.3 nM (active).

What about the GI50 [40] of the same compound?
Its GI50 is 38.6 nM (active).

What about the GI50 [41] of the same compound?
Its GI50 is 1.13 nM (active).

What about the GI50 [42] of the same compound?
The GI50 was 1.14 nM (active).

What about the GI50 [43] of the same compound?
Its GI50 is > 25000 nM (inactive).

What about the GI50 [44] of the same compound?
Its GI50 is 9.62 nM (active).

What about the GI50 [45] of the same compound?
The GI50 was 4.85 nM (active).

What about the GI50 [46] of the same compound?
The GI50 was 2.89 nM (active).

What about the GI50 [47] of the same compound?
Its GI50 is 3.91 nM (active).

And the GI50 [48]?
The GI50 was 9.79 nM (active).

What about the GI50 [49] of the same compound?
The GI50 was 26.8 nM (active).

What about the GI50 [50] of the same compound?
The GI50 was 3.8 nM (active).

What about the GI50 [51] of the same compound?
Its GI50 is > 25000 nM (inactive).

What about the GI50 [52] of the same compound?
The GI50 was 2.39 nM (active).

And the GI50 [53]?
Its GI50 is > 25000 nM (inactive).

And the GI50 [54]?
Its GI50 is 17.1 nM (active).

And the GI50 [55]?
Its GI50 is > 25000 nM (inactive).

And the GI50 [56]?
Its GI50 is 92.3 nM (active).

And the GI50 [57]?
The GI50 was 3.86 nM (active).

And the GI50 [58]?
Its GI50 is 3.98 nM (active).
